# Reference: patent US11207299B2, “Biphenyl sulfonamide compounds for the treatment of type IV collagen diseases” (Travere Therapeutics, Inc., priority 2018, dated 2021)
# Several values for one entry are separate records, joined by “and”; a condition that tells them apart may be missing. Equal entries are not always repeated. Entries after “also recorded” stand apart in the source; their conditions may differ.
# What was measured:
# [1] = test system: autosomal Alport mice (COL4A3^−/−); test: Hearing study in Alport mice (ABR, noise exposure, strial capillary basement membrane TEM); format: in vivo, mouse
# Description: (§1) Vehicle or sparsentan was given daily by oral gavage to autosomal Alport mice (COL4A3^−/−) on the 129/Sv background (male and female) in five separate studies: a pilot study, an early intervention study (treated from 3-7 weeks of age), a late intervention study (treated from 5-7 weeks of age after the onset of glomerular (GM) changes), a lifespan study, and a hearing study (FIG. 1). The early intervention, late intervention, lifespan, and hearing studies also included mice treated with a comparator, losartan, which was given orally at 3-4 weeks of age in the early intervention study, in drinking water at 4-7 weeks of age in the early intervention study, and in drinking water at 5-7 weeks in the late intervention study.
# (§2) Efficacy renal endpoints included blood urea nitrogen (BUN), proteinuria (urine protein to creatinine ratio, or UP/C), glomerulosclerosis, tubulointerstitial fibrosis, leucocyte infiltration, and glomerular basement morphology (GBM) using transmission electron microscopy (TEM). Endpoints in the inner ear included auditory brain stem response (ABR) threshold as a measure of noise-induced hearing loss, strial capillary basement membrane thickness, and inner ear pathology by TEM.
# For the hearing study, wild-type or Alport mice were treated according to daily from 3-8.5 weeks of age by oral gavage with vehicle (0.5% methylcellulose 4000 cps/0.25% Tween® 80 in distilled water) or 120 mg/kg sparsentan or losartan at 20 mg/kg by oral gavage from 3-4 weeks of age (during weaning) and 10 mg/kg in drinking water from 4-7 weeks of age (n=5). The progression of Alport disease was assessed at 7 weeks of age by the amount of proteinuria (via urinalysis reagent strips—data not shown). Strial capillary basement membrane (SCBM) width was analyzed by transmission electron microscopy (TEM), and accumulation of extracellular matrix (ECM) in SCBM was determined by immunofluorescence (IF) microscopy using an antibody to laminin α2. Hearing ability and sensitivity to noise were assessed between 7 and 8 weeks of age by Auditory Brainstem Response (ABR), pre-noise exposure. A subset of each treatment group was then exposed to a metabolic noise stress for 10 hours. Mice receiving the noise treatment were randomly selected for overstimulation with a 106 dB sound pressure level (SPL), narrow band noise (8-16 kHz) for 10 hours, usually 10 PM to 8 AM. The noise exposure was conducted in a sound-isolation booth. A speaker was suspended from the ceiling. Wire cages with individual compartments were located midway between the floor and speaker. Mice were hydrated prior to placement in the cage and were provided free access to food. The noise exposure occurred at 8 weeks of age. The amount of hearing loss caused by the metabolic noise exposure was determined 5 days post-exposure.
# [2] = test system: autosomal Alport mice (COL4A3^−/−); test: Late intervention study in Alport mice (treated from 5-7 weeks of age); format: in vivo, mouse
# Description: as §1, §2
# In the late intervention study, wild-type or Alport mice (8 mice per group) were dosed for 14 days according to the same methods used in the early intervention study but beginning at 5 weeks of age, i.e., dosed with vehicle, 120 mg/kg of sparsentan, or 10 mg/kg losartan starting at 5 weeks of age for 14 days. In this study, untreated Alport mice at 5 weeks of age were also used as baseline controls.
# For the pilot, early intervention, late intervention, and lifespan studies, spot urine was sampled pre-study and weekly during treatment and analyzed for protein (UP) and creatinine (C) to determine proteinuria (UP/C). At the end of each study the animals were euthanized, blood samples were taken, BUN was measured from serum, and kidneys were harvested for structural and immuno-fluorescent measurements. Glomerulosclerosis was assessed by immunofluorescence (IF) using an antibody to fibronectin (FN). Visual counting of the number of sclerotic glomeruli as a proportion of the total number of glomeruli per slide was used to calculate the percentage of sclerotic glomeruli. Sections were co-stained with an anti-CD45 antibody to indicate leucocyte infiltration. Tubulointerstitial fibrosis was determined by IF of kidney sections using an antibody to collagen 1 (COL1). Tubulointerstitial fibrosis (TIF) scoring was conducted by visual assessment of the COL1 positive area as a percentage of the total cortical area and was performed blinded. The fibrosis scoring (“Fibrosis Score”) was categorized according to visual judgment of percentage of total cortical area, as: 0=<5%, 1=5-10%, 2=10-25%, 3=25-50%, 4=50-75%, or 5=75-100%. Ultrastructural changes in GBM and podocyte morphology were observed using transmission electron microscopy (TEM).
# For a baseline comparison for late intervention, glomerulosclerosis and fibrosis were determined in kidney samples taken from 5-week-old untreated Alport mice.
# [3] = Alport mice late intervention, sparsentan 120 mg/kg, mean ± SD
smiles,measurement,setting,value
CCCCC1=NC2(CCCC2)C(=O)N1Cc1ccc(-c2ccccc2S(=O)(=O)Nc2noc(C)c2C)c(COCC)c1 [sparsentan],Hearing ability before noise exposure (ABR),"[1]; 7-8-week-old mice, sparsentan 120 mg/kg or losartan 20/10 mg/kg",did not differ significantly
same,Post-noise hearing loss (ABR threshold post-noise minus pre-noise) vs vehicle-treated Alport mice,"[1]; 16 kHz, 5 days after 10 h noise, sparsentan 120 mg/kg, P<0.05",prevented; also recorded: significantly reduced
same,Increase in strial capillary basement membrane width observed in vehicle-treated Alport mice,[1]; Alport mice treated 3-8.5 weeks of age with sparsentan or losartan,prevented
same,mean SCBM width±SD,"[1]; Alport mice, sparsentan 120 mg/kg from 3-8.5 weeks of age, TEM, n=5",54.7±2.4 nm
same,"Strial capillary basement membrane thickness, single measurements (FIG. 16)","[1]; capillary from a stria of a sparsentan-treated Alport mouse, TEM",52.45 nm and 58.09 nm and 80.38 nm
same,Stria vascularis pathology by TEM,"[1]; treated Alport mice, FIGS. 14-23",substantially fewer extra- and intra-cytosolic vacuoles
same,UP/C,"[2]; Alport mice late intervention, sparsentan 120 mg/kg for 14 days from 5 wk of age, mean ± SD, n = 8",16.8 ± 2.8 mg/mg
same,BUN,[2]; [3],16.2 ± 2.4 mg/dL
same,GS (% Sclerotic glomeruli),[2]; [3],8.3 ± 9.2 %
same,TIF,"[2]; Alport mice late intervention, sparsentan 120 mg/kg, tubulointerstitial fibrosis score, mean ± SD",0.8 ± 0.7
same,Nephroprotection in AP mice,"[2]; late intervention, to a greater extent than in the losartan-treated group",significant nephroprotection
same,"Development of fibrosis, CD45^+ leucocyte infiltration, and glomerulosclerosis","[2]; sparsentan 120 mg/kg or losartan 10 mg/kg, 5-7 weeks of age",prevented; also recorded: attenuated
same,"UP/C, BUN, glomerulosclerosis, and fibrosis vs. vehicle-treated Alport mice","[2]; sparsentan 120 mg/kg, late intervention, P<0.05",significantly lower
